Laboratory results: the supplement of paper PMC13207355
Structures can show the parent of a compound that is named as a salt.

What was measured:
Settings in all cases: exposure time: 72 h
E34 [1] = patient-derived glioblastoma stem cells of proneural subtype; experiment: phenotypic distance (Euclidean, principal components) from DMSO controls (arbitrary units); higher = stronger morphological change
E13 [2] = patient-derived glioblastoma stem cells of classical subtype; experiment: as above
E21 [3] = patient-derived glioblastoma stem cells of mesenchymal subtype; experiment: as above
FT3469 [4] = normal neural stem cell line; experiment: as above
E28 [5] = patient-derived glioblastoma stem cells of classical subtype; experiment: as above
E57 [6] = patient-derived glioblastoma stem cells of mesenchymal subtype; experiment: as above
E31 [7] = patient-derived glioblastoma stem cells of proneural subtype; experiment: as above
E34 [8] = experiment: surviving fraction (nuclei count normalised to DMSO); higher = more cells surviving (less toxic)
E13 [9] = experiment: as above
E21 [10] = experiment: as above
FT3469 [11] = experiment: as above
E28 [12] = experiment: as above
E57 [13] = experiment: as above
E31 [14] = experiment: as above
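Throughout, for phenotypic distance (Euclidean, principal components) from DMSO controls: cell Painting imaging in 384-well plates, CellProfiler features reduced to at least 20 principal components, Euclidean distance versus same-plate DMSO vehicle wells (0.1% v/v), median over six images per well.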
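Throughout, for surviving fraction (nuclei count normalised to DMSO): nuclei counted by high-content imaging of Hoechst-stained cells in laminin-coated 384-well plates, relative to 0.1% DMSO vehicle wells, with staurosporine as cell-death control.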

O=c1[nH]c(=O)n([C@H]2C[C@H](O)[C@@H](CO)O2)cc1I [Idoxuridine]
Settings	phenotypic distance	surviving fraction
E13 [2], 4.1 nM	1.19	–
E13 [2], 12.3 nM	1.08	–
E13 [2], 37 nM	1.53	–
E13 [2], 111.1 nM	0.919	–
E13 [2], 333.3 nM	0.742	–
E13 [2], 1000 nM	1.06	–
E13 [2], 3000 nM	0.576	–
E13 [9], 4.1 nM	–	0.99
E13 [9], 12.3 nM	–	0.847
E13 [9], 37 nM	–	0.893
E13 [9], 111.1 nM	–	0.967
E13 [9], 333.3 nM	–	0.953
E13 [9], 1000 nM	–	1.02
E13 [9], 3000 nM	–	1.06
E21 [3], 4.1 nM	0.811	–
E21 [3], 12.3 nM	1.68	–
E21 [3], 37 nM	1.77	–
E21 [3], 111.1 nM	0.694	–
E21 [3], 333.3 nM	1.11	–
E21 [3], 1000 nM	1.12	–
E21 [3], 3000 nM	1.56	–
E21 [10], 4.1 nM	–	0.958
E21 [10], 12.3 nM	–	0.967
E21 [10], 37 nM	–	1
E21 [10], 111.1 nM	–	0.893
E21 [10], 333.3 nM	–	1.01
E21 [10], 1000 nM	–	0.969
E21 [10], 3000 nM	–	0.986
E28 [5], 4.1 nM	0.822	–
E28 [5], 12.3 nM	0.591	–
E28 [5], 37 nM	0.96	–
E28 [5], 111.1 nM	0.701	–
E28 [5], 333.3 nM	0.922	–
E28 [5], 1000 nM	0.762	–
E28 [5], 3000 nM	1.1	–
E28 [12], 4.1 nM	–	1.11
E28 [12], 12.3 nM	–	0.859
E28 [12], 37 nM	–	1.06
E28 [12], 111.1 nM	–	1.12
E28 [12], 333.3 nM	–	0.97
E28 [12], 1000 nM	–	0.76
E28 [12], 3000 nM	–	0.954
E31 [7], 4.1 nM	1.23	–
E31 [7], 12.3 nM	0.821	–
E31 [7], 37 nM	0.938	–
E31 [7], 111.1 nM	0.814	–
E31 [7], 333.3 nM	0.763	–
E31 [7], 1000 nM	0.973	–
E31 [7], 3000 nM	0.756	–
E31 [14], 4.1 nM	–	0.736
E31 [14], 12.3 nM	–	1.04
E31 [14], 37 nM	–	0.782
E31 [14], 111.1 nM	–	1.15
E31 [14], 333.3 nM	–	0.725
E31 [14], 1000 nM	–	0.982
E31 [14], 3000 nM	–	0.787
E34 [1], 4.1 nM	0.63	–
E34 [1], 12.3 nM	0.803	–
E34 [1], 37 nM	0.845	–
E34 [1], 111.1 nM	0.69	–
E34 [1], 333.3 nM	0.689	–
E34 [1], 1000 nM	0.829	–
E34 [1], 3000 nM	1.45	–
E34 [8], 4.1 nM	–	0.86
E34 [8], 12.3 nM	–	1
E34 [8], 37 nM	–	1.04
E34 [8], 111.1 nM	–	0.92
E34 [8], 333.3 nM	–	1.03
E34 [8], 1000 nM	–	0.959
E34 [8], 3000 nM	–	1.01
E57 [6], 4.1 nM	0.916	–
E57 [6], 12.3 nM	0.612	–
E57 [6], 37 nM	0.986	–
E57 [6], 111.1 nM	1.62	–
E57 [6], 333.3 nM	0.906	–
E57 [6], 1000 nM	1.14	–
E57 [6], 3000 nM	1.5	–
E57 [13], 4.1 nM	–	1.04
E57 [13], 12.3 nM	–	1.02
E57 [13], 37 nM	–	0.958
E57 [13], 111.1 nM	–	0.992
E57 [13], 333.3 nM	–	1.01
E57 [13], 1000 nM	–	0.99
E57 [13], 3000 nM	–	0.867
FT3469 [4], 4.1 nM	0.962	–
FT3469 [4], 12.3 nM	1.15	–
FT3469 [4], 37 nM	0.953	–
FT3469 [4], 111.1 nM	0.541	–
FT3469 [4], 333.3 nM	1.76	–
FT3469 [4], 1000 nM	0.62	–
FT3469 [4], 3000 nM	0.72	–
FT3469 [11], 4.1 nM	–	0.845
FT3469 [11], 12.3 nM	–	1.33
FT3469 [11], 37 nM	–	0.987
FT3469 [11], 111.1 nM	–	0.845
FT3469 [11], 333.3 nM	–	1.18
FT3469 [11], 1000 nM	–	0.86
FT3469 [11], 3000 nM	–	1.07

N=C(N)NCc1cccc(I)c1 [Iobenguane sulfate]
Settings	phenotypic distance	surviving fraction
E13 [2], 4.1 nM	0.573	–
E13 [2], 12.3 nM	0.965	–
E13 [2], 37 nM	0.696	–
E13 [2], 111.1 nM	0.835	–
E13 [2], 333.3 nM	0.643	–
E13 [2], 1000 nM	0.541	–
E13 [2], 3000 nM	0.796	–
E13 [9], 4.1 nM	–	0.873
E13 [9], 12.3 nM	–	0.869
E13 [9], 37 nM	–	0.916
E13 [9], 111.1 nM	–	0.908
E13 [9], 333.3 nM	–	0.989
E13 [9], 1000 nM	–	0.922
E13 [9], 3000 nM	–	1.08
E21 [3], 4.1 nM	0.441	–
E21 [3], 12.3 nM	0.695	–
E21 [3], 37 nM	1.24	–
E21 [3], 111.1 nM	0.881	–
E21 [3], 333.3 nM	0.867	–
E21 [3], 1000 nM	0.81	–
E21 [3], 3000 nM	0.765	–
E21 [10], 4.1 nM	–	0.982
E21 [10], 12.3 nM	–	0.855
E21 [10], 37 nM	–	0.854
E21 [10], 111.1 nM	–	0.921
E21 [10], 333.3 nM	–	0.972
E21 [10], 1000 nM	–	1.05
E21 [10], 3000 nM	–	0.879
E28 [5], 4.1 nM	0.591	–
E28 [5], 12.3 nM	0.866	–
E28 [5], 37 nM	0.64	–
E28 [5], 111.1 nM	0.721	–
E28 [5], 333.3 nM	0.496	–
E28 [5], 1000 nM	0.786	–
E28 [5], 3000 nM	0.814	–
E28 [12], 4.1 nM	–	0.875
E28 [12], 12.3 nM	–	1.03
E28 [12], 37 nM	–	0.94
E28 [12], 111.1 nM	–	1.05
E28 [12], 333.3 nM	–	1.04
E28 [12], 1000 nM	–	1.05
E28 [12], 3000 nM	–	0.936
E31 [7], 4.1 nM	0.547	–
E31 [7], 12.3 nM	0.684	–
E31 [7], 37 nM	0.567	–
E31 [7], 111.1 nM	0.714	–
E31 [7], 333.3 nM	0.802	–
E31 [7], 1000 nM	0.469	–
E31 [7], 3000 nM	0.734	–
E31 [14], 4.1 nM	–	0.961
E31 [14], 12.3 nM	–	0.997
E31 [14], 37 nM	–	0.864
E31 [14], 111.1 nM	–	1.15
E31 [14], 333.3 nM	–	1.07
E31 [14], 1000 nM	–	1.13
E31 [14], 3000 nM	–	0.964
E34 [1], 4.1 nM	0.386	–
E34 [1], 12.3 nM	0.879	–
E34 [1], 37 nM	0.823	–
E34 [1], 111.1 nM	0.771	–
E34 [1], 333.3 nM	1.44	–
E34 [1], 1000 nM	0.934	–
E34 [1], 3000 nM	0.966	–
E34 [8], 4.1 nM	–	0.935
E34 [8], 12.3 nM	–	1.1
E34 [8], 37 nM	–	1.02
E34 [8], 111.1 nM	–	0.975
E34 [8], 333.3 nM	–	1.08
E34 [8], 1000 nM	–	1.1
E34 [8], 3000 nM	–	1.25
E57 [6], 4.1 nM	0.755	–
E57 [6], 12.3 nM	0.843	–
E57 [6], 37 nM	0.712	–
E57 [6], 111.1 nM	0.905	–
E57 [6], 333.3 nM	0.728	–
E57 [6], 1000 nM	0.452	–
E57 [6], 3000 nM	0.547	–
E57 [13], 4.1 nM	–	1.03
E57 [13], 12.3 nM	–	0.978
E57 [13], 37 nM	–	0.973
E57 [13], 111.1 nM	–	1.03
E57 [13], 333.3 nM	–	0.992
E57 [13], 1000 nM	–	1.01
E57 [13], 3000 nM	–	1.04
FT3469 [4], 4.1 nM	0.354	–
FT3469 [4], 12.3 nM	3.38	–
FT3469 [4], 37 nM	0.885	–
FT3469 [4], 111.1 nM	1.06	–
FT3469 [4], 333.3 nM	1.08	–
FT3469 [4], 1000 nM	0.871	–
FT3469 [4], 3000 nM	0.634	–
FT3469 [11], 4.1 nM	–	1.08
FT3469 [11], 12.3 nM	–	1.12
FT3469 [11], 37 nM	–	0.963
FT3469 [11], 111.1 nM	–	1.09
FT3469 [11], 333.3 nM	–	1.1
FT3469 [11], 1000 nM	–	0.904
FT3469 [11], 3000 nM	–	1.14
